# From ChEMBL document CHEMBL4411307, “N,N'-diaryl-bishydrazones in a biphenyl platform: Broad spectrum antifungal agents” (Eur J Med Chem, 2019)
# Calls of active or inactive are those of the source. No cut-off for these calls is given here.
# Key:
# [1] = Selectivity index, ratio of compound concentration showing <20 to <30% hemolysis in mouse RBC to MIC for fluconazole/ITC-resistant Candida albicans ATCC MYA-1003; type: toxicity; conditions: mouse red blood cells (RBC), read-out: Selectivity Index
# [2] = Hemolytic activity in mouse RBC at 62.5 ug/ml after 1 hr relative to control; type: ADME, cell-based, Erythrocyte; conditions: red blood cells (erythrocytes), read-out: Activity
# [3] = Selectivity index, ratio of CC50 for human A549 cells to MIC for Candida parapsilosis ATCC 22019; type: toxicity; conditions: read-out: Selectivity Index
# [4] = Selectivity index, ratio of CC50 for human A549 cells to MIC for Candida glabrata ATCC 2001; type: toxicity; conditions: read-out: Selectivity Index
# [5] = Hemolytic activity in mouse RBC at […] after 1 hr relative to control; type: ADME, cell-based, Erythrocyte; conditions: red blood cells (erythrocytes), read-out: Activity; note: tested at 0.48 µg/mL
# [6] = Selectivity index, ratio of CC50 for human A549 cells to MIC for fluconazole/ITC-susceptible Candida albicans ATCC MYA-2310; type: toxicity; conditions: read-out: Selectivity Index
# Staphylococcus aureus = assay: Antibacterial activity against methicillin-resistant Staphylococcus aureus; type: functional, organism-based
# Candida albicans [7] = assay: Antifungal activity against fluconazole/ITC-resistant Candida albicans ATCC 90819 measured after 48 hrs by CLSI M27-A3 protocol based method; type: functional; conditions: ATCC 90819, 48 h
# Pichia kudriavzevii = assay: Antifungal activity against Candida krusei ATCC 6258 measured after 48 hrs by CLSI M27-A3 protocol based method; type: functional; conditions: ATCC 6258, 48 h
# [8] = Selectivity index, ratio of CC50 for human A549 cells to MIC for Aspergillus nidulans ATCC 38163; type: toxicity; conditions: read-out: Selectivity Index
# [9] = Selectivity index, ratio of compound concentration showing <20 to <30% hemolysis in mouse RBC to MIC for fluconazole/ITC-resistant Candida albicans ATCC 90819; type: toxicity; conditions: red blood cells (erythrocytes), read-out: Selectivity Index
# Aspergillus terreus = assay: Antifungal activity against Aspergillus terreus ATCC MYA-3633 measured after 48 hrs by CLSI M38-A2 protocol based method; type: functional; conditions: ATCC MYA-3633, 48 h
# BEAS-2B = assay: Cytotoxicity against human BEAS2B cells after 24 hrs by resazurin based assay; type: cell-based
# [10] = Selectivity index, ratio of compound concentration showing <20 to <30% hemolysis in mouse RBC to MIC for Aspergillus flavus ATCC MYA-3631; type: toxicity; conditions: mouse red blood cells (RBC), read-out: Selectivity Index
# Candida albicans [11] = assay: Antifungal activity against fluconazole/ITC-susceptible Candida albicans ATCC MYA-2876 measured after 48 hrs by CLSI M27-A3 protocol based method; type: functional; conditions: ATCC MYA-2876, 48 h
# Enterococcus = assay: Antibacterial activity against vancomycin-resistant Enterococcus; type: functional, organism-based
# Candida parapsilosis = assay: Antifungal activity against Candida parapsilosis ATCC 22019 measured after 48 hrs by CLSI M27-A3 protocol based method; type: functional; conditions: Lodderomyces parapsilosis, ATCC 22019, 48 h
# Candida albicans [12] = assay: Antifungal activity against fluconazole/ITC-resistant Candida albicans ATCC 10231 measured after 48 hrs by CLSI M27-A3 protocol based method; type: functional; conditions: ATCC 10231, 48 h
# Nakaseomyces glabratus = assay: Antifungal activity against Candida glabrata ATCC 2001 measured after 48 hrs by CLSI M27-A3 protocol based method; type: functional; conditions: CBS 138, 48 h
# [13] = Selectivity index, ratio of compound concentration showing <20 to <30% hemolysis in mouse RBC to MIC for fluconazole/ITC-resistant Candida albicans ATCC 64124; type: toxicity; conditions: red blood cells (erythrocytes), read-out: Selectivity Index
# Candida albicans [14] = assay: Antifungal activity against fluconazole/ITC-resistant Candida albicans ATCC 64124 measured after 48 hrs by CLSI M27-A3 protocol based method; type: functional; conditions: ATCC 64124, 48 h
# [15] = Selectivity index, ratio of CC50 for human A549 cells to MIC for Candida krusei ATCC 6258; type: toxicity; conditions: read-out: Selectivity Index
# [16] = Selectivity index, ratio of compound concentration showing <20 to <30% hemolysis in mouse RBC to MIC for fluconazole/ITC-resistant Candida albicans ATCC MYA-1237; type: toxicity; conditions: mouse red blood cells (RBC), read-out: Selectivity Index
# [17] = Selectivity index, ratio of compound concentration showing <20 to <30% hemolysis in mouse RBC to MIC for Aspergillus terreus ATCC MYA-3633; type: toxicity; conditions: mouse red blood cells (RBC), read-out: Selectivity Index
# [18] = Selectivity index, ratio of CC50 for human A549 cells to MIC for fluconazole/ITC-resistant Candida albicans ATCC 90819; type: toxicity; conditions: read-out: Selectivity Index
# [19] = Selectivity index, ratio of compound concentration showing <20 to <30% hemolysis in mouse RBC to MIC for Aspergillus nidulans ATCC 38163; type: toxicity; conditions: mouse red blood cells (RBC), read-out: Selectivity Index
# Candida albicans [20] = assay: Antifungal activity against fluconazole/ITC-resistant Candida albicans ATCC MYA-1003 measured after 48 hrs by CLSI M27-A3 protocol based method; type: functional; conditions: ATCC MYA-1003, 48 h
# [21] = Hemolytic activity in mouse RBC at 31.3 ug/ml after 1 hr relative to control; type: ADME, cell-based, Erythrocyte; conditions: red blood cells (erythrocytes), read-out: Activity
# [22] = Selectivity index, ratio of compound concentration showing <20 to <30% hemolysis in mouse RBC to MIC for fluconazole/ITC-susceptible Candida albicans ATCC MYA-2876; type: toxicity; conditions: red blood cells (erythrocytes), read-out: Selectivity Index
# [23] = Selectivity index, ratio of compound concentration showing <20 to <30% hemolysis in mouse RBC to MIC for Candida krusei ATCC 6258; type: toxicity; conditions: mouse red blood cells (RBC), read-out: Selectivity Index
# [24] = Selectivity index, ratio of compound concentration showing <20 to <30% hemolysis in mouse RBC to MIC for Candida glabrata ATCC 2001; type: toxicity; conditions: mouse red blood cells (RBC), read-out: Selectivity Index
# [25] = Hemolytic activity in mouse RBC at 1.95 ug/ml after 1 hr relative to control; type: ADME, cell-based, Erythrocyte; conditions: red blood cells (erythrocytes), read-out: Activity
# Aspergillus nidulans = assay: Antifungal activity against Aspergillus nidulans ATCC 38163 measured after 48 hrs by CLSI M38-A2 protocol based method; type: functional; conditions: ATCC 38163, 48 h
# [26] = Selectivity index, ratio of CC50 for human A549 cells to MIC for fluconazole/ITC-susceptible Candida albicans ATCC MYA-2876; type: toxicity; conditions: read-out: Selectivity Index
# [27] = Hemolytic activity in mouse RBC at 3.9 ug/ml after 1 hr relative to control; type: ADME, cell-based, Erythrocyte; conditions: red blood cells (erythrocytes), read-out: Activity
# Candida albicans [28] = assay: Antifungal activity against fluconazole/ITC-resistant Candida albicans ATCC MYA-1237 measured after 48 hrs by CLSI M27-A3 protocol based method; type: functional; conditions: ATCC MYA-1237, 48 h
# [29] = Selectivity index, ratio of CC50 for human A549 cells to MIC for Aspergillus terreus ATCC MYA-3633; type: toxicity; conditions: read-out: Selectivity Index
# A549 = assay: Cytotoxicity against human A549 cells after 24 hrs by resazurin based assay; type: cell-based; conditions: a549, 24 h
# [30] = Selectivity index, ratio of CC50 for human A549 cells to MIC for fluconazole/ITC-resistant Candida albicans ATCC MYA-1003; type: toxicity; conditions: read-out: Selectivity Index
# [31] = Selectivity index, ratio of compound concentration showing <20 to <30% hemolysis in mouse RBC to MIC for fluconazole/ITC-susceptible Candida albicans ATCC MYA-2310; type: toxicity; conditions: mouse red blood cells (RBC), read-out: Selectivity Index
# [32] = Selectivity index, ratio of CC50 for human A549 cells to MIC for fluconazole/ITC-resistant Candida albicans ATCC 10231; type: toxicity; conditions: read-out: Selectivity Index
# [33] = Hemolytic activity in mouse RBC at 7.8 ug/ml after 1 hr relative to control; type: ADME, cell-based, Erythrocyte; conditions: red blood cells (erythrocytes), read-out: Activity
# Listeria monocytogenes = assay: Antibacterial activity against Listeria monocytogenes; type: functional, organism-based
# [34] = Hemolytic activity in mouse RBC at […] ug/ml after 1 hr relative to control; type: ADME, cell-based, Erythrocyte; conditions: red blood cells (erythrocytes), read-out: Activity
# Aspergillus flavus = assay: Antifungal activity against Aspergillus flavus ATCC MYA-3631 measured after 48 hrs by CLSI M38-A2 protocol based method; type: functional; conditions: ATCC MYA-3631, 48 h
# [35] = Selectivity index, ratio of compound concentration showing <20 to <30% hemolysis in mouse RBC to MIC for fluconazole/ITC-resistant Candida albicans ATCC 10231; type: toxicity; conditions: red blood cells (erythrocytes), read-out: Selectivity Index
# [36] = Selectivity index, ratio of compound concentration showing <20 to <30% hemolysis in mouse RBC to MIC for Candida parapsilosis ATCC 22019; type: toxicity; conditions: mouse red blood cells (RBC), read-out: Selectivity Index
# Candida albicans [37] = assay: Antifungal activity against fluconazole/ITC-susceptible Candida albicans ATCC MYA-2310 measured after 48 hrs by CLSI M27-A3 protocol based method; type: functional; conditions: ATCC MYA-2310, 48 h
# [38] = Selectivity index, ratio of CC50 for human A549 cells to MIC for fluconazole/ITC-resistant Candida albicans ATCC MYA-1237; type: toxicity; conditions: read-out: Selectivity Index
# [39] = Selectivity index, ratio of CC50 for human A549 cells to MIC for fluconazole/ITC-resistant Candida albicans ATCC 64124; type: toxicity; conditions: read-out: Selectivity Index
smiles,measurement,setting,value
Fc1ccc(N/N=C/c2ccc(-c3ccc(/C=N/Nc4ccc(F)cc4)cc3)cc2)cc1,selectivity ratio,[1],1 to 32
same,"hemolysis at 1 h, 62.5 ug/ml",[2],28.3%
same,selectivity ratio,[3],0.6
same,selectivity ratio,[4],1.1
same,"hemolysis at 1 h, […]",[5],0%
same,selectivity ratio,[6],1.1
same,Activity,Staphylococcus aureus,inactive
same,MIC,Candida albicans [7],31.3 µg/mL
same,MIC,Pichia kudriavzevii,1.95 µg/mL
same,selectivity ratio,[8],2.3
same,selectivity ratio,[9],1 to 32
same,MIC,Aspergillus terreus,> 31.3 µg/mL
same,CC50,BEAS-2B,8.5 µg/mL
same,selectivity ratio,[10],1 to 32
same,MIC,Candida albicans [11],7.8 µg/mL
same,Activity,Enterococcus,inactive
same,MIC,Candida parapsilosis,31.3 µg/mL
same,MIC,Candida albicans [12],7.8 µg/mL
same,MIC,Nakaseomyces glabratus,15.6 µg/mL
same,selectivity ratio,[13],1 to 32
same,MIC,Candida albicans [14],15.6 µg/mL
same,selectivity ratio,[15],9.1
same,selectivity ratio,[16],1 to 32
same,selectivity ratio,[17],1 to 32
same,selectivity ratio,[18],0.6
same,selectivity ratio,[19],1 to 32
same,MIC,Candida albicans [20],7.8 µg/mL
same,"hemolysis at 1 h, 31.3 ug/ml",[21],9.6%
same,selectivity ratio,[22],1 to 32
same,selectivity ratio,[23],1 to 32
same,selectivity ratio,[24],1 to 32
same,"hemolysis at 1 h, 1.95 ug/ml",[25],1.1%
same,MIC,Aspergillus nidulans,7.8 µg/mL
same,selectivity ratio,[26],2.3
same,"hemolysis at 1 h, 3.9 ug/ml",[27],0.7%
same,MIC,Candida albicans [28],7.8 µg/mL
same,selectivity ratio,[29],0.6
same,CC50,A549,17.7 µg/mL
same,selectivity ratio,[30],2.3
same,selectivity ratio,[31],1 to 32
same,selectivity ratio,[32],2.3
same,"hemolysis at 1 h, 7.8 ug/ml",[33],3.2%
same,Activity,Listeria monocytogenes,inactive
same,"hemolysis at 1 h, 15.6 ug/ml",[34]; at 15.6 µg/mL,9%
same,"hemolysis at 1 h, 0.975 ug/ml",[34],0%
same,MIC,Aspergillus flavus,7.8 µg/mL
same,selectivity ratio,[35],1 to 32
same,selectivity ratio,[36],1 to 32
same,MIC,Candida albicans [37],15.6 µg/mL
same,selectivity ratio,[38],2.3
same,selectivity ratio,[39],1.1
